Test results from ChEMBL document CHEMBL4665629, “An optimised series of substituted N-phenylpyrrolamides as DNA gyrase B inhibitors” (Eur J Med Chem, 2019).
pIC50: −log10 of the molar value. Values after ≈ are worked out from the molar mass of the structure shown.

Key:
Escherichia coli [1] = assay: Antibacterial activity against Escherichia coli MG1655 harboring GyrB R136C mutant assessed as minimum inhibitory concentration required for >=90% inhibition of bacterial growth in presence of 50 ug/ml phenylalanine-arginine beta-naphthylamide; type: functional
Klebsiella aerogenes [2] = assay: microbe, parasite or virus in culture; conditions: ATCC 13408
Escherichia coli [3] = assay: Antibacterial activity against Escherichia coli MG1655 harboring […]/D87N and ParC S80I/E84G mutants assessed as minimum inhibitory concentration required for >=90% inhibition of bacterial growth in presence of 50 ug/ml phenylalanine-arginine beta-naphthylamide; type: functional
Escherichia coli [4] = assay: Antibacterial activity against Escherichia coli MG1655 harboring […]/D87N and ParC S80I mutants assessed as minimum inhibitory concentration required for >=90% inhibition of bacterial growth in presence of 50 ug/ml phenylalanine-arginine beta-naphthylamide; type: functional
Escherichia coli [5] = assay: Antibacterial activity against Escherichia coli MG1655 harboring […]/D87N mutant assessed as minimum inhibitory concentration required for >=90% inhibition of bacterial growth in presence of 50 ug/ml phenylalanine-arginine beta-naphthylamide; type: functional
Klebsiella pneumoniae [6] = assay: microbe, parasite or virus in culture; conditions: 700603
Acinetobacter baumannii [7] = assay: microbe, parasite or virus in culture; conditions: ATCC 19606 = CIP 70.34 = JCM 6841
Escherichia coli [8] = assay: Antibacterial activity against Escherichia coli MG1655 harboring […] mutant assessed as minimum inhibitory concentration required for >=90% inhibition of bacterial growth in presence of 50 ug/ml phenylalanine-arginine beta-naphthylamide; type: functional
[9] = Inhibition of Escherichia coli DNA topoisomerase 4
DNA gyrase [10] = target: T1, DNA gyrase (Escherichia coli, UniProt P0AES4+P0AES6); assay: Inhibition of Escherichia coli DNA gyrase (A2B2 tetramer) incubated for 60 mins in presence of ATP by malachite green reagent based spectrophotometric analysis; type: protein-complex assay
Enterococcus faecalis [11] = assay: Antibacterial activity against Enterococcus faecalis ATCC 29212 assessed as bacterial growth inhibition by CLSI protocol based broth dilution or agar dilution method; type: functional
[12] = Inhibition of Escherichia coli DNA GyraseB incubated for 10 mins followed by ATP substrate addition by coupled spectrophotometric analysis
Staphylococcus aureus [13] = assay: Antibacterial activity against Staphylococcus aureus assessed as bacterial growth inhibition incubated for 18 to 24 hrs by alamar blue assay; type: functional; conditions: time hrs 18-24
Escherichia coli [14] = assay: Antibacterial activity against Escherichia coli assessed as bacterial growth inhibition incubated for 18 to 24 hrs by alamar blue assay; type: functional; conditions: time hrs 18-24
Klebsiella pneumoniae [15] = assay: Antibacterial activity against Klebsiella pneumoniae ATCC 700603 assessed as bacterial growth inhibition at 50 uM incubated for 24 hrs by CLSI protocol based broth microdilution assay relative to control; type: functional
Enterococcus faecalis [16] = assay: Antibacterial activity against Enterococcus faecalis ATCC 29212 assessed as bacterial growth inhibition at 50 uM incubated for 24 hrs by CLSI protocol based broth microdilution assay relative to control; type: functional
DNA gyrase [17] = target: T1, DNA gyrase; assay: Inhibition of Escherichia coli DNA gyrase using biotinylated oligonucleotide as substrate incubated for 30 mins in presence of ATP by fluorescence-based microplate reader assay; type: protein-complex assay
Staphylococcus aureus [18] = assay: Antibacterial activity against Staphylococcus aureus ATCC 29213 assessed as minimum inhibitory concentration required for >=90% inhibition of bacterial growth by CLSI protocol based broth microdilution assay; type: functional
[19] = target: DNA gyrase (Staphylococcus aureus) (UniProt P0A0K8+P20831); assay: Inhibition of Staphylococcus aureus DNA gyrase assessed as residual activity at 1 uM using biotinylated oligonucleotide as substrate incubated for 30 mins in presence of ATP by fluorescence-based microplate reader assay relative to control; type: protein-complex assay
Klebsiella aerogenes [20] = assay: Antibacterial activity against Enterobacter aerogenes ATCC 13408 assessed as bacterial growth inhibition at 50 uM incubated for 24 hrs by CLSI protocol based broth microdilution assay relative to control; type: functional
Pseudomonas aeruginosa = assay: Antibacterial activity against Pseudomonas aeruginosa ATCC 27853 assessed as bacterial growth inhibition at 50 uM incubated for 24 hrs by CLSI protocol based broth microdilution assay relative to control; type: functional
Escherichia coli [21] = assay: Antibacterial activity against efflux pump d effect ive Escherichia coli JW5503 harbouring tolC mutant assessed as minimum inhibitory concentration required for >=90% inhibition of bacterial growth by CLSI protocol based broth microdilution assay; type: functional
Enterococcus faecalis [22] = assay: Antibacterial activity against Enterococcus faecalis ATCC 29212 assessed as minimum inhibitory concentration required for >=90% inhibition of bacterial growth by CLSI protocol based broth microdilution assay; type: functional
Escherichia coli [23] = assay: Antibacterial activity against efflux pump d effect ive Escherichia coli JW5503 harbouring tolC mutant assessed as bacterial growth inhibition at 50 uM incubated for 24 hrs by CLSI protocol based broth microdilution assay relative to control; type: functional
[24] = Inhibition of Escherichia coli DNA topoisomerase 4 assessed as residual activity at 1 uM using biotinylated oligonucleotide as substrate incubated for 30 mins in presence of ATP by fluorescence-based microplate reader assay relative to control
[25] = target: Topoisomerase IV (Staphylococcus aureus) (UniProt P0C1U9+P0C1S7); assay: Inhibition of Staphylococcus aureus DNA topoisomerase 4 assessed as residual activity at 1 uM using biotinylated oligonucleotide as substrate incubated for 30 mins in presence of ATP by fluorescence-based microplate reader assay relative to control; type: protein-complex assay
Acinetobacter baumannii [26] = assay: Antibacterial activity against Acinetobacter baumannii ATCC 19606 assessed as bacterial growth inhibition at 50 uM incubated for 24 hrs by CLSI protocol based broth microdilution assay relative to control; type: functional; conditions: ATCC 19606 = CIP 70.34 = JCM 6841
Staphylococcus aureus [27] = assay: Antibacterial activity against Staphylococcus aureus ATCC 29213 assessed as bacterial growth inhibition at 50 uM incubated for 24 hrs by CLSI protocol based broth microdilution assay relative to control; type: functional
Enterococcus faecium [28] = assay: Antibacterial activity against Enterococcus faecium ATCC 35667 assessed as bacterial growth inhibition at 50 uM incubated for 24 hrs by CLSI protocol based broth microdilution assay relative to control; type: functional
Escherichia coli [29] = assay: Antibacterial activity against Escherichia coli ATCC 25922 assessed as bacterial growth inhibition at 50 uM incubated for 24 hrs by CLSI protocol based broth microdilution assay relative to control; type: functional
Escherichia coli [30] = assay: Antibacterial activity against outer membrane impaired Escherichia coli JD17464 harboring lpxC mutant assessed as bacterial growth inhibition at 50 uM incubated for 24 hrs by CLSI protocol based broth microdilution assay relative to control; type: functional
[31] = Cytotoxicity against human HepG2 cells assessed as reduction in cell proliferation at 50 uM after 72 hrs by MTS assay relative to control; type: cell-based; conditions: read-out: Activity
Enterococcus faecium [32] = assay: Antibacterial activity against Enterococcus faecium ATCC 35667 assessed as minimum inhibitory concentration required for >=90% inhibition of bacterial growth by CLSI protocol based broth microdilution assay; type: functional
[33] = Cytotoxicity against HUVEC assessed as reduction in cell proliferation at 50 uM after 72 hrs by MTS assay relative to control; type: cell-based; conditions: human, HUVEC cells, read-out: Activity

DNA gyrase (Staphylococcus aureus), sequence (P0A0K8 2-644 limits assumed): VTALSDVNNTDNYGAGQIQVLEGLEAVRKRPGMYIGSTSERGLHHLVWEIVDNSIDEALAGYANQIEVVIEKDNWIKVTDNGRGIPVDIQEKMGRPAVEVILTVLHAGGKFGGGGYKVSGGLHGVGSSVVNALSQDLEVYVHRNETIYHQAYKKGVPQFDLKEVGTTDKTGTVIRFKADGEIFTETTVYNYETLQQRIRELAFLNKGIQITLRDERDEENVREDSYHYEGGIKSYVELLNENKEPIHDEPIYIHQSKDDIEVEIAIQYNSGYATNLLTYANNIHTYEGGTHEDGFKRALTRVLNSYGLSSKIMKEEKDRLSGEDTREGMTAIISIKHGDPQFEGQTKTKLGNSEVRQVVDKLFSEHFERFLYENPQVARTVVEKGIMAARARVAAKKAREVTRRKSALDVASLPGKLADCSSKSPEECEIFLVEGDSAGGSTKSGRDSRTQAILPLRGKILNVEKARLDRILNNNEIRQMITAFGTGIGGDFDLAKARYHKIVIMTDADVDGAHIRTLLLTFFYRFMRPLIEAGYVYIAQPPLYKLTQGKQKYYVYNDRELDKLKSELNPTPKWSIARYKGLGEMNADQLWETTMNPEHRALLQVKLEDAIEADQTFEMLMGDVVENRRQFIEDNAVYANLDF
DNA gyrase (Staphylococcus aureus), sequence (P20831 whole entry partner): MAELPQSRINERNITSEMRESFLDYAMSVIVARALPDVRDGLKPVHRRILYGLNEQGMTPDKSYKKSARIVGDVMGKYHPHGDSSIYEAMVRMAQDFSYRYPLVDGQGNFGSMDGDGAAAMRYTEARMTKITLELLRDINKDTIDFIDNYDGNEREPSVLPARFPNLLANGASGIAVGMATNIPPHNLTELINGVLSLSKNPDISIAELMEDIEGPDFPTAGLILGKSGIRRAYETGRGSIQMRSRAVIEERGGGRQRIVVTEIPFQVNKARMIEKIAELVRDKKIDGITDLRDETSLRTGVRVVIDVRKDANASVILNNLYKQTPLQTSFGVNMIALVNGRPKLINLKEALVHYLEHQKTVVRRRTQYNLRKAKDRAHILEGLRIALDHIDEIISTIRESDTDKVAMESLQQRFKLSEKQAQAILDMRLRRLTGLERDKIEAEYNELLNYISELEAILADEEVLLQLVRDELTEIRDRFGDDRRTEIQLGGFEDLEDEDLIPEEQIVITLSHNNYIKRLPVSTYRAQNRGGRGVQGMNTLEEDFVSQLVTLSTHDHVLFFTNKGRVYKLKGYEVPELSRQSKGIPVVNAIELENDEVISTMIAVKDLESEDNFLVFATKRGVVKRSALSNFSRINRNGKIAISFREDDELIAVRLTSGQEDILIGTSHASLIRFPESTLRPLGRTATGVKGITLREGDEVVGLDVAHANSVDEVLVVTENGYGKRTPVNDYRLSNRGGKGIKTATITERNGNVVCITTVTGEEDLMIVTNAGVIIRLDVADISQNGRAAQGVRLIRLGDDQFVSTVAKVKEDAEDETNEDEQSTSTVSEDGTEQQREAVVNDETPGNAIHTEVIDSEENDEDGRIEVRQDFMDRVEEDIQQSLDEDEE

| Structure (SMILES) | inhibition at 50 µM (Klebsiella pneumoniae [15]) [%] | inhibition at 50 µM (Enterococcus faecalis [16]) [%] | pIC50 (DNA gyrase [17]) | Activity [19] [%] | inhibition at 50 µM (Klebsiella aerogenes [20]) [%] | inhibition at 50 µM (Pseudomonas aeruginosa) [%] | MIC (Enterococcus faecalis [22]) [µM] | inhibition at 50 µM (Escherichia coli [23]) [%] | Activity [24] [%] | Activity [25] [%] | inhibition at 50 µM (Acinetobacter baumannii [26]) [%] | inhibition at 50 µM (Staphylococcus aureus [27]) [%] | inhibition at 50 µM (Enterococcus faecium [28]) [%] | inhibition at 50 µM (Escherichia coli [29]) [%] | inhibition at 50 µM (Escherichia coli [30]) [%] | also measured |
| --- | --- | --- | --- | --- | --- | --- | --- | --- | --- | --- | --- | --- | --- | --- | --- | --- |
| O=C(O)c1cn(C2CC2)c2cc(N3CCNCC3)c(F)cc2c1=O [CIPROFLOXACIN] | – | – | – | – | – | – | – | – | – | – | – | – | – | – | – | MIC (Escherichia coli [1]): 0.01 µM; MIC (Klebsiella aerogenes [2]): 0.113 µM (≈ 0.0374 µg/mL); MIC (Escherichia coli [3]): > 32 µM; MIC (Escherichia coli [4]): 8 µM; MIC (Escherichia coli [5]): 0.19 µM; MIC (Klebsiella pneumoniae [6]): 0.05 µM (≈ 0.0166 µg/mL); MIC (Acinetobacter baumannii [7]): 3.62 µM (≈ 1.2 µg/mL); MIC (Escherichia coli [8]): 0.01 µM |
| CCNC(=O)Nc1nc2cc(-c3cnc(N4CCC(C)(C(=O)O)CC4)nc3)cc(-c3ccccn3)c2s1 | – | – | – | – | – | – | – | – | – | – | – | – | – | – | – | pIC50 [9]: 7.34; pIC50 (DNA gyrase [10]): 8.39; MIC (Enterococcus faecalis [11]): 0.03 µg/mL (≈ 0.058 µM) |
| CNc1cc(F)cc2c1[nH]c1nc(Oc3cnc(C)nc3)nc(N3C[C@@H]4[C@H](N)C[C@]4(C)C3)c12 | – | – | – | – | – | – | – | – | – | – | – | – | – | – | – | pIC50 [12]: 9.52; MIC (Staphylococcus aureus [13]): 0.002 µg/mL (≈ 0.00446 µM); MIC (Escherichia coli [14]): 0.06 µg/mL (≈ 0.134 µM) |
| Cc1[nH]c(C(=O)Nc2ccc(-n3nn[nH]c3=O)cc2)c(Cl)c1Cl | -2 | 99 | 7.11 | 47 | -2 | -3 | 12.5 (≈ 4.41 µg/mL) | 100 | 94 | 85 | 1 | 99 | 53 | 3 | -1 | MIC (Staphylococcus aureus [18]): 50 µM (≈ 17.7 µg/mL); MIC (Escherichia coli [21]): 3.13 µM (≈ 1.11 µg/mL) |
| Cc1[nH]c(C(=O)Nc2ccc(C(=O)N[C@H](C)c3n[nH]c(=S)o3)cc2OC(C)C)c(Cl)c1Cl | 5 | 101 | 6.72 | 59 | 10 | 1 | 6.25 (≈ 3.11 µg/mL) | 40 | 92 | 90 | 6 | 7 | 79 | 21 | 1 | inhibition at 72 h, 50 µM [31]: 80%; MIC (Enterococcus faecium [32]): > 125 µM; inhibition at 72 h, 50 µM [33]: 85% |
